Experimental data taken from patent US20080044538A1, “Method For Pigment Solubilization, A pigment Composition And Its Use” (AKZO NOBEL N.V., priority 2004, published 2008).

Assay: Solubilization of pigment from Lucantin Pink CWD into oil with water and surfactant; absorbance of filtered oil-phase
Conditions: type A, mix 3 g, surfactant 2 g, Tobis fish-oil 35 g; for Absorbance at 474 nm after 1.5 days in refrigerator and filtration: 0.200 ml diluted to 10 ml

Q: With Sorbitan monostearate as the substance, how does the “% recov. after 1.5 days in refrigerator and filtration” value read?
A: The value was “(30.7) %”.

Q: What about the “Absorbance at 474 nm after 1.5 days in refrigerator and filtration” value of the same substance?
A: Its value is 0.174.

Q: For “sorbitan monooleate [Sorbitan ester monooleate]”, which “% recov. after 1.5 days in refrigerator and filtration” value is on record?
A: The value was “(27.4) %”.

Q: What about the “Absorbance at 474 nm after 1.5 days in refrigerator and filtration” value of the same substance?
A: Its value is 0.157.
